From patent US8765669B2, “Glycosylated GLP-1 peptide” (Glytech, Inc., priority 2008, dated 2014)

How the values were obtained:
[1] = target: T1, DPP-IV (dipeptidyl peptidase IV from porcine kidney) (Sus scrofa, UniProt P22411); assay: Test of resistance to dipeptidyl peptidase IV (DPP-IV); format: in vitro ADME; details: half-life (t1/2) in DPP-IV solution at 37° C., GLP-1 of Comparative Example 1 defined as standard (=1)
T1 construct: dipeptidyl peptidase IV from porcine kidney, product of SIGMA; purchased SIGMA; host or cells: porcine kidney (tissue-derived enzyme)
Description: Each solution mixture was adjusted with 100 mM sodium phosphate buffer to 100 μl in total and allowed to react at 37° C. A 10 μaliquot of the reaction solution was mixed with 15 μl of 10% trifluoroacetic acid prepared in advance in another Eppendorf tube.

C57BL/6JJcl mice = assay: Oral Glucose Tolerance Test (OGTT); format: in vivo
Description: After 30 minutes, a glucose solution was orally administered at a dose of 1 mg/g. Blood was collected from the orbits before the glucose administration and 30 minutes, 60 minutes and 120 minutes after the glucose administration. Blood-sugar levels were measured using ACCU-CHEK Aviva (Roche Diagnostics). In the drawings below, for example, “26,34Cys GLP-1-disialo”, which is an oligosaccharide chain added GLP-1 peptide wherein amino acids at positions 26 and 34 of GLP-1 are each substituted with disialo oligosaccharide chain added Cys, is referred to as “C26,C34”, if necessary. The same holds true for other oligosaccharide chains and amino acid sites.
Next, 18,36Cys GLP-1-disialo and GLP-1 were evaluated by OGTT using doses of 1/10 (0.9 nmol/kg) and 9 nmol/kg, respectively, and compared.

T1 sequence (P22411 whole entry): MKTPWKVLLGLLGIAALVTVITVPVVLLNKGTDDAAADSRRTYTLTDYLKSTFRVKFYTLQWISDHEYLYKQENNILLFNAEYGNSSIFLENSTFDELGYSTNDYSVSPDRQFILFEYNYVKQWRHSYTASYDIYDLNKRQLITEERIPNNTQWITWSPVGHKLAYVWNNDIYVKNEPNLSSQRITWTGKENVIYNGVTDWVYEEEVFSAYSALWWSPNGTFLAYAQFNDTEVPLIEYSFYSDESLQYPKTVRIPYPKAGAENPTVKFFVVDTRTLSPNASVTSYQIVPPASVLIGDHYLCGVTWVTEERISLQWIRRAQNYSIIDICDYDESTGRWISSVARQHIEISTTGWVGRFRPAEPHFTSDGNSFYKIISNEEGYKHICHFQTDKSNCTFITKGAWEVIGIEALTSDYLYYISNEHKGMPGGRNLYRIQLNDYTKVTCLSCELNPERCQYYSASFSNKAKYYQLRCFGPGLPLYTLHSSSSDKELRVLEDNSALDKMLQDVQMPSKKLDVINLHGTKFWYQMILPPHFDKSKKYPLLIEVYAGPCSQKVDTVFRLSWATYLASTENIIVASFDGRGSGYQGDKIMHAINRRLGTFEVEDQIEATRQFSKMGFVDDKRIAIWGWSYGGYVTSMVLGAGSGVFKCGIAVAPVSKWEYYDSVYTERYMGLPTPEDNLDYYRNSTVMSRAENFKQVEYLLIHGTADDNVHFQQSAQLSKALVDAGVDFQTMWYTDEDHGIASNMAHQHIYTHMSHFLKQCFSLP

CC[C@H](C)[C@H](NC(=O)[C@H](Cc1ccccc1)NC(=O)[C@H](CCC(=O)O)NC(=O)[C@H](CCCCN)NC(=O)[C@H](C)NC(=O)[C@H](C)NC(=O)[C@H](CCC(N)=O)NC(=O)CNC(=O)[C@H](CCC(=O)O)NC(=O)[C@H](CC(C)C)NC(=O)[C@H](Cc1ccc(O)cc1)NC(=O)[C@H](CSCC(=O)N[C@@H]1O[C@H](CO)[C@@H](O[C@@H]2O[C@H](CO)[C@@H](O[C@@H]3O[C@H](CO[C@H]4O[C@H](CO)[C@@H](O)[C@H](O)[C@@H]4O[C@@H]4O[C@H](CO)[C@@H](O[C@@H]5O[C@H](CO[C@]6(C(=O)O)C[C@H](O)[C@@H](NC(C)=O)[C@H]([C@H](O)[C@H](O)CO)O6)[C@H](O)[C@H](O)[C@H]5O)[C@H](O)[C@H]4NC(C)=O)[C@@H](O)[C@H](O[C@H]4O[C@H](CO)[C@@H](O)[C@H](O)[C@@H]4O[C@@H]4O[C@H](CO)[C@@H](O[C@@H]5O[C@H](CO[C@]6(C(=O)O)C[C@H](O)[C@@H](NC(C)=O)[C@H]([C@H](O)[C@H](O)CO)O6)[C@H](O)[C@H](O)[C@H]5O)[C@H](O)[C@H]4NC(C)=O)[C@@H]3O)[C@H](O)[C@H]2NC(C)=O)[C@H](O)[C@H]1NC(C)=O)NC(=O)[C@H](CO)NC(=O)[C@@H](NC(=O)[C@H](CC(=O)O)NC(=O)[C@H](CO)NC(=O)[C@@H](NC(=O)[C@H](Cc1ccccc1)NC(=O)[C@@H](NC(=O)CNC(=O)[C@H](CCC(=O)O)NC(=O)[C@H](C)NC(=O)[C@@H](N)Cc1c[nH]cn1)[C@@H](C)O)[C@@H](C)O)C(C)C)C(=O)N[C@@H](C)C(=O)N[C@@H](Cc1c[nH]c2ccccc12)C(=O)N[C@@H](CC(C)C)C(=O)N[C@H](C(=O)N[C@@H](CCCCN)C(=O)NCC(=O)N[C@@H](CSCC(=O)N[C@@H]1O[C@H](CO)[C@@H](O[C@@H]2O[C@H](CO)[C@@H](O[C@@H]3O[C@H](CO[C@H]4O[C@H](CO)[C@@H](O)[C@H](O)[C@@H]4O[C@@H]4O[C@H](CO)[C@@H](O[C@@H]5O[C@H](CO[C@]6(C(=O)O)C[C@H](O)[C@@H](NC(C)=O)[C@H]([C@H](O)[C@H](O)CO)O6)[C@H](O)[C@H](O)[C@H]5O)[C@H](O)[C@H]4NC(C)=O)[C@@H](O)[C@H](O[C@H]4O[C@H](CO)[C@@H](O)[C@H](O)[C@@H]4O[C@@H]4O[C@H](CO)[C@@H](O[C@@H]5O[C@H](CO[C@]6(C(=O)O)C[C@H](O)[C@@H](NC(C)=O)[C@H]([C@H](O)[C@H](O)CO)O6)[C@H](O)[C@H](O)[C@H]5O)[C@H](O)[C@H]4NC(C)=O)[C@@H]3O)[C@H](O)[C@H]2NC(C)=O)[C@H](O)[C@H]1NC(C)=O)C(=O)NCC(=O)O)C(C)C [Example 2, 18 and 36Cys-disialo oligosaccharide Chain Added GLP-1]
Relative Resistance [1]: 128.6 | effect of suppressing rise in blood-sugar levels (C57BL/6JJcl mice; 0.9 nmol/kg intraperitoneal, compared with GLP-1 at 9 nmol/kg, FIG. 5): almost equal effect of suppressing rise in blood-sugar levels to that of GLP-1 | effect of suppressing rise in blood-sugar levels relative to that of GLP-1 (C57BL/6JJcl mice; OGTT, from doses giving almost equal effect (0.9 vs 9 nmol/kg)): about 10 times
